Measurements from patent US6300327A, “Compositions and methods for potentiation of neurotrophin activity” (The University of Southern California, priority 1997, dated 2001).

System: chick dorsal root ganglia neurons (DRG)
Assay: Survival of dissociated chick DRG neurons (embryonic day 9)
Format: cell-based
Protocol: DRGs of embryonic day 9 chicks were dissected and dissociated using enzymatic and mechanical procedures as described in the literature [Rosenthal, A. et al., "Primary Structure and Biological Activity of a Novel Human Neurotrophic Factor," Neuron 4:767-773 (1990)]. 1800 neurons were plated per well in 96-well tissue culture plates pretreated with polyornithine (500 μg/ml) and laminin (10 μg/ml). Cells were incubated for 48 hrs with or without growth factors and the indicated concentrations of K-252b. Phase-bright cells with elaborated neurites 5× the diameter of the cell bodies were then counted.
Similar to the findings obtained in primary cultures of brain cholinergic neurons, low concentration of K-252b (50 nM) potentiated the survival promoting action of a maximally effective concentration of NT-3 (FIG. 3). Survival of dissociated chick DRG neurons in presence of rhNGF (100 ng/ml) or rhNT-3 (100 ng/ml) and K-252b is illustrated in FIG. 3; concentrations on the horizontal axis are for K-252b. The columns represent means +SEMs. […] High concentrations of K-252b (10 μM) inhibited the action of NGF on sensory neurons, as found for cholinergic neurons (FIG. 3).

SMILES: CC12OC(CC1(O)C(=O)O)n1c3ccccc3c3c4c(c5c6ccccc6n2c5c31)CNC4=O (stereo not shown) [K-252b]
- effect on survival mediated by NGF or BDNF (50 nM K-252b): failed to influence survival
- number of neurons supported by combination with NT-3 (50 nM K-252b + NT-3): identical to that supported by NGF alone
- effect on survival promoting action of NT-3 (50 nM K-252b, rhNT-3 100 ng/ml): potentiated
- effect on action of NGF on sensory neurons (10 μM K-252b, rhNGF 100 ng/ml): inhibited
